Measured values: ChEMBL document CHEMBL3872220, “Amphiphilic xanthones as a potent chemical entity of anti-mycobacterial agents with membrane-targeting properties” (Eur J Med Chem, 2016)
≈ marks a conversion by molar mass, not a printed value.

Experiments:
[1] = Hemolytic activity against New Zealand white rabbit RBC assessed as hemoglobin release measured after 1 hr; assay type: ADME, cell-based, Oryctolagus cuniculus, Erythrocyte; details: red blood cells
[2] = system: Mycolicibacterium smegmatis; test: Antimycobacterial activity against Mycobacterium smegmatis MC2 155 after 24 hrs by broth dilution assay; assay type: functional; details: str. MC2 155, 24 h
[3] = system: Staphylococcus aureus; test: Antibacterial activity against methicillin-resistant Staphylococcus aureus isolate DM21455; assay type: functional
[4] = system: Staphylococcus aureus; test: Antibacterial activity against Staphylococcus aureus isolate DM4001; assay type: functional
[5] = Cytotoxicity against human corneal fibroblasts assessed as reduction in ATP level measured after 4 hrs by Celltiter-Glo luminescent assay; assay type: toxicity, Corneal fibroblast
[6] = Cytotoxicity against human corneal fibroblasts assessed as increase in LDH level measured after 4 hrs by Cytotox-one […] assay; assay type: toxicity, Corneal fibroblast
[7] = Drug metabolism in rat liver microsomes at 1 uM preincubated for 5 mins followed by NADPH addition measured up to 30 mins by LC-MS/MS method; assay type: ADME; details: read-out: Drug metabolism
[8] = Half life in rat liver microsomes at 1 uM preincubated for 5 mins followed by NADPH addition measured by LC-MS/MS method; assay type: ADME
[9] = target: CYP3A4 (Homo sapiens, UniProt P08684); test: Inhibition of CYP3A4 in human liver microsomes at 10 uM using midazolam as substrate preincubated for 5 min followed by NADPH addition measured after 10 mins by LC-MS/MS method relative to control; assay type: ADME; details: probe midazolam
[10] = target: CYP2D6 (Homo sapiens, UniProt P10635); test: Inhibition of CYP2D6 in human liver microsomes at 10 uM using bufuralol as substrate preincubated for 5 min followed by NADPH addition measured after 10 mins by LC-MS/MS method relative to control; assay type: ADME; details: probe bufuralol
[11] = target: CYP2C19 (Homo sapiens, UniProt P33261); test: Inhibition of CYP2C19 in human liver microsomes at 10 uM using omeprazole as substrate preincubated for 5 min followed by NADPH addition measured after 10 mins by LC-MS/MS method relative to control; assay type: ADME; details: probe omeprazole
[12] = system: Mycolicibacterium smegmatis; test: Antimycobacterial activity against Mycobacterium smegmatis MC2 155 assessed as inhibition of respiratory ATP synthesis by measuring ATP level at 800 ug/ml measured after 1 hr by luciferase reporter gene assay (reference value: 90.6%); assay type: functional, str. MC2 155; parameters: scale not given: the % may be the effect or the level left
[13] = system: Mycolicibacterium smegmatis; test: Antimycobacterial activity against Mycobacterium smegmatis MC2 155 assessed as inhibition of respiratory ATP synthesis by measuring ATP level at 800 ug/ml measured after 3 hrs by luciferase reporter gene assay (reference value: 158.3%); assay type: functional, str. MC2 155; parameters: scale not given: the % may be the effect or the level left
[14] = system: Mycolicibacterium smegmatis; test: Antimycobacterial activity against Mycobacterium smegmatis MC2 155 assessed as inhibition of respiratory ATP synthesis by measuring ATP level at 800 ug/ml measured after 6 hrs by luciferase reporter gene assay (reference value: 152%); assay type: functional, str. MC2 155; parameters: scale not given: the % may be the effect or the level left
[15] = system: Mycolicibacterium smegmatis; test: Antimycobacterial activity against Mycobacterium smegmatis MC2 155 assessed as inhibition of respiratory ATP synthesis by measuring ATP level at 800 ug/ml measured after 9 hrs by luciferase […] assay (reference value: 212.7%); assay type: functional, str. MC2 155; parameters: scale not given: the % may be the effect or the level left
[16] = system: Mycolicibacterium smegmatis; test: Antimycobacterial activity against Mycobacterium smegmatis MC2 155 assessed as inhibition of respiratory ATP synthesis by measuring ATP level at 4 times MIC measured after 1 hr by luciferase reporter gene assay (reference value: 90.6%); assay type: functional, str. MC2 155; parameters: scale not given: the % may be the effect or the level left
[17] = system: Mycolicibacterium smegmatis; test: Antimycobacterial activity against Mycobacterium smegmatis MC2 155 assessed as inhibition of respiratory ATP synthesis by measuring ATP level at 2 times MIC measured after 3 hrs by luciferase reporter gene assay (reference value: 158.3%); assay type: functional, str. MC2 155; parameters: scale not given: the % may be the effect or the level left
[18] = system: Mycolicibacterium smegmatis; test: Antimycobacterial activity against Mycobacterium smegmatis MC2 155 assessed as inhibition of respiratory ATP synthesis by measuring ATP level at 4 times MIC measured after 6 hrs by luciferase reporter gene assay (reference value: 152%); assay type: functional, str. MC2 155; parameters: scale not given: the % may be the effect or the level left
[19] = system: Mycolicibacterium smegmatis; test: Antimycobacterial activity against Mycobacterium smegmatis MC2 155 assessed as inhibition of respiratory ATP synthesis by measuring ATP level at 4 times MIC measured after 6 hrs by luciferase reporter gene assay (reference value: 212.7%); assay type: functional, str. MC2 155; parameters: scale not given: the % may be the effect or the level left
[20] = Selectivity index, ratio of CC50 for human corneal fibroblasts assessed as reduction in ATP level to MIC90 for Mycobacterium smegmatis MC2 155
[21] = Selectivity index, ratio of CC50 for human corneal fibroblasts assessed as reduction in ATP level to MIC90 for Mycobacterium bovis BCG ATCC 35734

CYP3A4, sequence (P08684 whole entry): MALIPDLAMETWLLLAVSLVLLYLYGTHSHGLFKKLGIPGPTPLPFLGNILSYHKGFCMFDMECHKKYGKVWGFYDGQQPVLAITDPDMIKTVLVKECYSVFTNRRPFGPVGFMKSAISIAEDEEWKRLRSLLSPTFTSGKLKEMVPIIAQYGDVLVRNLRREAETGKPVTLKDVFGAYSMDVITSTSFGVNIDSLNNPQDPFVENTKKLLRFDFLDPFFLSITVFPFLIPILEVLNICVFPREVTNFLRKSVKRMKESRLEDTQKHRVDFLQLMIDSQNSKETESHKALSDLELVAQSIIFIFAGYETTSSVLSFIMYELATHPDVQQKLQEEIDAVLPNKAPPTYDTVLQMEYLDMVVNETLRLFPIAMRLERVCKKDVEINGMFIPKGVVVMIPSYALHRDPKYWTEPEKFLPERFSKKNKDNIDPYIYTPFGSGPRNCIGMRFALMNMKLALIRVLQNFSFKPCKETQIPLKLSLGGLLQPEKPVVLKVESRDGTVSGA
CYP2D6, sequence (P10635 whole entry): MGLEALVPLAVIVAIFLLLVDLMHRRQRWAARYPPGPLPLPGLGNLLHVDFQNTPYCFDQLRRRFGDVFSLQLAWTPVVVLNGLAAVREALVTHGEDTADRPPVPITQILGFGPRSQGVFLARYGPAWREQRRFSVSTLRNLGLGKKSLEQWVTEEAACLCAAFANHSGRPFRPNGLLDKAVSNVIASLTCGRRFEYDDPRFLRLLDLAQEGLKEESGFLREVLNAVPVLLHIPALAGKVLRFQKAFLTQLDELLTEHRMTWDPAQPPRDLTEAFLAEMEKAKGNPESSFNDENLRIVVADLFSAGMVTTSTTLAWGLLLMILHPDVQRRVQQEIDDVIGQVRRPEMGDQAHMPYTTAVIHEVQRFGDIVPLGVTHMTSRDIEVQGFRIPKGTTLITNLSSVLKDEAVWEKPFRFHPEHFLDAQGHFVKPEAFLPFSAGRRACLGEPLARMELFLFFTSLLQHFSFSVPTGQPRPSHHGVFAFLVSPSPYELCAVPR
CYP2C19, sequence (P33261 whole entry): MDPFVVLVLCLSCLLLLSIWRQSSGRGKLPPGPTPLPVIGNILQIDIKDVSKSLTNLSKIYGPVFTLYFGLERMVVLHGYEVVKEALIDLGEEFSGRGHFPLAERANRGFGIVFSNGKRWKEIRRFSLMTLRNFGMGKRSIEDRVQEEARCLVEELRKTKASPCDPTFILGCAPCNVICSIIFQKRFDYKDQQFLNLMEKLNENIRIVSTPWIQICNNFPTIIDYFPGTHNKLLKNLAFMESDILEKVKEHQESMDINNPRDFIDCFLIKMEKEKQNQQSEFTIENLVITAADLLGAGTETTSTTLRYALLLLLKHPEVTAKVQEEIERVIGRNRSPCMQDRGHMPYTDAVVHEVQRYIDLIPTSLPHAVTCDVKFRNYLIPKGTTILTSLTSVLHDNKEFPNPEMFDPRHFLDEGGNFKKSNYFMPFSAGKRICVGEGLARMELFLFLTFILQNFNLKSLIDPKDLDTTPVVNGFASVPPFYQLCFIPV

COC(=O)C(CCCNC(=N)N)NC(=O)COc1cc2oc3cc(OCC(=O)NC(CCCNC(=N)N)C(=O)OC)c(OC)c(CC=C(C)C)c3c(=O)c2c(O)c1CC=C(C)C (configuration not stated)
HC50 at 1 h [1]: 309 µM
MIC90 [2]: > 30 µM
MIC [3]: 2.5 µM (≈ 2.17 µg/mL)
MIC [4]: 3.5 µM (≈ 3.03 µg/mL)
CC50 at 4 h [5]: 13.7 µM
CC50 at 4 h [6]: 13.4 µM
metabolised at 0.5 h, 1 µM [7]: 12.6%
half-life at 1 µM [8]: > 30 min
inhibition at 10 min, 10 µM [9]: 36%
inhibition at 10 min, 10 µM [10]: 11%
inhibition at 10 min, 10 µM [11]: 1%

CCN(CC)CCCCOc1ccc2c(=O)c3c(O)cc(OCCCCN(CC)CC)cc3oc2c1
HC50 at 1 h [1]: > 401 µM
MIC90 [2]: > 30 µM

CCN(CC)CCCCOc1cc2oc3cc(OCCCCN(CC)CC)c(OC)c(CCC(C)C)c3c(=O)c2c(O)c1CCC(C)C
MIC90 [2]: 6.4 µM (≈ 4.28 µg/mL)

C(=NC1CCCCC1)=NC1CCCCC1 [DICYCLOHEXYLCARBODIIMIDE]
Activity [12]: 7%
Activity [13]: 6.7%
Activity [14]: 11.1%
Activity [15]: 13.3%

COC(=O)C(Cc1cnc[nH]1)NC(=O)COc1cc2oc3cc(OCC(=O)NC(Cc4cnc[nH]4)C(=O)OC)c(OC)c(CC=C(C)C)c3c(=O)c2c(O)c1CC=C(C)C (configuration not stated)
HC50 at 1 h [1]: > 241 µM
MIC90 [2]: > 30 µM

COc1c(OCCCCN2CCSCC2)cc2oc3cc(OCCCCN4CCSCC4)c(CC=C(C)C)c(O)c3c(=O)c2c1CC=C(C)C
HC50 at 1 h [1]: > 276 µM
MIC90 [2]: > 30 µM

CCCN(CCC)CC(O)COc1cc2oc3cc(OCC(O)CN(CCC)CCC)c(OC)c(CC=C(C)C)c3c(=O)c2c(O)c1CC=C(C)C (configuration not stated)
HC50 at 1 h [1]: > 276 µM
MIC90 [2]: > 30 µM

CO[C@H]1/C=C/O[C@@]2(C)Oc3c(C)c(O)c4c(O)c(c(/C=N/N5CCN(C)CC5)c(O)c4c3C2=O)NC(=O)/C(C)=C\C=C\[C@H](C)[C@H](O)[C@@H](C)[C@@H](O)[C@@H](C)[C@H](OC(C)=O)[C@@H]1C [RIFAMPIN]
MIC90 [2]: 2.5 µM (≈ 2.06 µg/mL)
Activity [16]: 123.4%
Activity [17]: 95.6%
Activity [18]: 66.5%

O=C(CC(=O)C(F)(F)F)c1cccs1
Activity [12]: 36.8%
Activity [13]: 25.8%
Activity [14]: 17.4%
Activity [15]: 26.3%

COc1c(OCC(=O)NC(CCCNC(=N)N)C(N)=O)cc2oc3cc(OCC(=O)NC(CCCNC(=N)N)C(N)=O)c(CC=C(C)C)c(O)c3c(=O)c2c1CC=C(C)C (configuration not stated)
HC50 at 1 h [1]: 183 µM
MIC90 [2]: > 30 µM
CC50 at 4 h [5]: 60.1 µM
CC50 at 4 h [6]: 119 µM
metabolised at 0.5 h, 1 µM [7]: 14.4%
half-life at 1 µM [8]: > 30 min
inhibition at 10 min, 10 µM [9]: 42%
inhibition at 10 min, 10 µM [10]: 2%
inhibition at 10 min, 10 µM [11]: 3%

COc1c(OCC(O)CNC(CO)(CO)CO)cc2oc3cc(OCC(O)CNC(CO)(CO)CO)c(CC=C(C)C)c(O)c3c(=O)c2c1CC=C(C)C (configuration not stated)
HC50 at 1 h [1]: 33.2 µM
MIC90 [2]: 26 µM (≈ 19.9 µg/mL)

COc1c(OCCCCN2CCOCC2)cc2oc3cc(OCCCCN4CCOCC4)c(CC=C(C)C)c(OCCCCN4CCOCC4)c3c(=O)c2c1CC=C(C)C
HC50 at 1 h [1]: > 240 µM
MIC90 [2]: > 30 µM

CN[C@@H]1[C@H](O[C@H]2[C@H](O[C@H]3[C@H](O)[C@@H](O)[C@H](N=C(N)N)[C@@H](O)[C@@H]3N=C(N)N)O[C@@H](C)[C@]2(O)C=O)O[C@@H](CO)[C@H](O)[C@H]1O [STREPTOMYCIN]
MIC90 [2]: 0.625 µM (≈ 0.363 µg/mL)
Activity [16]: 114.4%
Activity [17]: 75.7%
Activity [18]: 59.9%
Activity [19]: 75.7%

CCN(CC)CCCOc1cc2oc3cc(OCCCN(CC)CC)c(OC)c(CC=C(C)C)c3c(=O)c2c(O)c1CC=C(C)C
MIC90 [2]: 3.2 µM (≈ 2.04 µg/mL)

CCN(CC)CCCCOc1cc2oc3cc(OCCCCN(CC)CC)c(OC)c(CC=C(C)C)c3c(=O)c2c(OCCCCN(CC)CC)c1CC=C(C)C
HC50 at 1 h [1]: > 252 µM
MIC90 [2]: > 30 µM
CC50 at 4 h [5]: 43.7 µM
CC50 at 4 h [6]: > 150 µM
metabolised at 0.5 h, 1 µM [7]: 11.6%
half-life at 1 µM [8]: > 30 min
inhibition at 10 min, 10 µM [9]: 40%
inhibition at 10 min, 10 µM [10]: 30%
inhibition at 10 min, 10 µM [11]: 10%

CCCCN(CC)CCCCOc1cc2oc3cc(OCCCCN(CC)CCCC)c(OC)c(CC=C(C)C)c3c(=O)c2c(O)c1CC=C(C)C
HC50 at 1 h [1]: > 277 µM
MIC90 [2]: > 30 µM

CCN(CC)CCOc1cc2oc3cc(OCCN(CC)CC)c(OC)c(CC=C(C)C)c3c(=O)c2c(O)c1CC=C(C)C
HC50 at 1 h [1]: > 328 µM
MIC90 [2]: 3.2 µM (≈ 1.95 µg/mL)
CC50 at 4 h [5]: 44.1 µM
CC50 at 4 h [6]: 92.6 µM
metabolised at 0.5 h, 1 µM [7]: 82.8%
half-life at 1 µM [8]: 12 min
inhibition at 10 min, 10 µM [9]: 20%
inhibition at 10 min, 10 µM [10]: 28%
inhibition at 10 min, 10 µM [11]: 16%

COc1c(OCC(O)CNCCNCCNCCN)cc2oc3cc(OCC(O)CNCCNCCNCCN)c(CC=C(C)C)c(O)c3c(=O)c2c1CC=C(C)C (configuration not stated)
HC50 at 1 h [1]: 155 µM
MIC90 [2]: > 30 µM
MIC [3]: 15 µM (≈ 12.2 µg/mL)
MIC [4]: 15 µM (≈ 12.2 µg/mL)

COc1c(OCC(O)CNCCN)cc2oc3cc(OCC(O)CNCCN)c(CC=C(C)C)c(O)c3c(=O)c2c1CC=C(C)C (configuration not stated)
HC50 at 1 h [1]: 125 µM
MIC90 [2]: > 30 µM
MIC [3]: 5 µM (≈ 3.21 µg/mL)
MIC [4]: 10 µM (≈ 6.43 µg/mL)

CC[C@@H](CO)NCCN[C@@H](CC)CO [ETHAMBUTOL]
MIC90 [2]: 1.25 µM (≈ 0.255 µg/mL)
Activity [16]: 113.5%
Activity [17]: 13.1%
Activity [18]: 71.3%
Activity [19]: 79.7%

COc1c(OCC(O)CNCCNC(=N)N)cc2oc3cc(OCC(O)CNCCNC(=N)N)c(CC=C(C)C)c(O)c3c(=O)c2c1CC=C(C)C (configuration not stated)
HC50 at 1 h [1]: 141 µM
MIC90 [2]: > 30 µM
MIC [3]: 5 µM (≈ 3.63 µg/mL)
MIC [4]: 5 µM (≈ 3.63 µg/mL)

COc1c(OCCCCN(C)C)cc2oc3cc(OCCCCN(C)C)c(CCC(C)C)c(O)c3c(=O)c2c1CCC(C)C
MIC90 [2]: 6.4 µM (≈ 3.92 µg/mL)

CCN(CC)CC(O)COc1cc2oc3cc(OCC(O)CN(CC)CC)c(OC)c(CC=C(C)C)c3c(=O)c2c(O)c1CC=C(C)C (configuration not stated)
HC50 at 1 h [1]: 108 µM
MIC90 [2]: 6.4 µM (≈ 4.28 µg/mL)

CCN(CC)CCCCCCCOc1cc2oc3cc(OCCCCCCCN(CC)CC)c(OC)c(CC=C(C)C)c3c(=O)c2c(O)c1CC=C(C)C
HC50 at 1 h [1]: 86 µM
MIC90 [2]: 6.4 µM (≈ 4.79 µg/mL)
CC50 at 4 h [5]: 95.1 µM
CC50 at 4 h [6]: > 150 µM
metabolised at 0.5 h, 1 µM [7]: 13.9%
half-life at 1 µM [8]: > 30 min
inhibition at 10 min, 10 µM [9]: 3%
inhibition at 10 min, 10 µM [10]: 6%
inhibition at 10 min, 10 µM [11]: 16%
Selectivity Index [20]: 15 - 40
Selectivity Index [21]: 15 - 40
